Twelve molecules from ChEMBL document CHEMBL1131530, “Synthesis and biological activities of tricyclic conformationally restricted tetrahydropyrido annulated furo[2,3-d]pyrimidines as inhibitors of dihydrofolate reductases” (J Med Chem, 1998) can be followed below.

Series [1] in a line: Selectivity for dihydrofolate reductase enzyme in rat liver Toxoplasma gondii.
The nature of series [2]: Selectivity for dihydrofolate reductase enzyme in rat liver and Pneumocystis carinii.
Series [3] has as its target T1, Dihydrofolate reductase (Pneumocystis carinii, UniProt P16184).
T1 sequence (P16184 whole entry): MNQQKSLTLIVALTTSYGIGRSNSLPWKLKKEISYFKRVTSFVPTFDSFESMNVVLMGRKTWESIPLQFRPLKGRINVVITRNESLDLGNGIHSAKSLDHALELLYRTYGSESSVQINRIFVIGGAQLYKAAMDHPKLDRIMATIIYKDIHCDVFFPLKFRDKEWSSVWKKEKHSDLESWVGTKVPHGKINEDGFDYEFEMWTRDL
Description: Inhibition of Pneumocystis carinii dihydrofolate reductase

Series [4] addresses T2, Dihydrofolate reductase (Mycobacterium avium, UniProt O30463).
T2 sequence (O30463 whole entry): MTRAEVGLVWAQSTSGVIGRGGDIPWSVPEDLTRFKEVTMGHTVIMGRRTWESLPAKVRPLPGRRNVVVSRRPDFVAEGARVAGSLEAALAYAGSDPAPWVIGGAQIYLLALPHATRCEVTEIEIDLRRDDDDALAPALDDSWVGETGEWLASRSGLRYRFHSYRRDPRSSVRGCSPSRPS
In words: Inhibitory concentration was evaluated against […] Dihydrofolate reductase enzyme in Mycobacterium avium.

Series [5] has as its target T3, Dihydrofolate reductase (Rattus norvegicus, UniProt Q920D2).
T3 sequence (Q920D2 whole entry): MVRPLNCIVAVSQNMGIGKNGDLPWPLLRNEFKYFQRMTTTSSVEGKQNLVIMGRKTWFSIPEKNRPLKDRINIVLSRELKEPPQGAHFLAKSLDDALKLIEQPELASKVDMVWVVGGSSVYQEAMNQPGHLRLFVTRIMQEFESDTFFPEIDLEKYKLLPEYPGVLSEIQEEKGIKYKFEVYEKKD
Description: Inhibition of Dihydrofolate reductase of rat liver

The target in series [6] is T4, Bifunctional dihydrofolate reductase-thymidylate synthase (Toxoplasma gondii, UniProt Q07422).
T4 sequence (Q07422 whole entry): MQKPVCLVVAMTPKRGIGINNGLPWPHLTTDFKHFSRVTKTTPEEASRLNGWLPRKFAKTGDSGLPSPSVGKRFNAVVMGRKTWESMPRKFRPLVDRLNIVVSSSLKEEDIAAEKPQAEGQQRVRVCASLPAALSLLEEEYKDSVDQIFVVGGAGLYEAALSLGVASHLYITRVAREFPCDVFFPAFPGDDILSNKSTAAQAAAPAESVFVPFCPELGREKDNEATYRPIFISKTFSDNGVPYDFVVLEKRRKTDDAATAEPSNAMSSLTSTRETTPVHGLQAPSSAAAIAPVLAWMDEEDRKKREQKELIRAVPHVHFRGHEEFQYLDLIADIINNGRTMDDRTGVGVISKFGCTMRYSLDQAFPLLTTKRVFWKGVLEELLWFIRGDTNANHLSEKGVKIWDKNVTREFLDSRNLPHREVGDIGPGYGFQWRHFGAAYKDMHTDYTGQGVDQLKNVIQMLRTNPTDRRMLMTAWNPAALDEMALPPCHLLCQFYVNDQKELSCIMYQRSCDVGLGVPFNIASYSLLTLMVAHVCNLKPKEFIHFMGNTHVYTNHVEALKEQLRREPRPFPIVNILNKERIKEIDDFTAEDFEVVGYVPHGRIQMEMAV
Description: Inhibition of Toxoplasma gondii Dihydrofolate reductase

In series [7] the target is T5, Folylpolyglutamate synthase, mitochondrial (Homo sapiens) (UniProt Q05932).
T5 sequence (whole entry): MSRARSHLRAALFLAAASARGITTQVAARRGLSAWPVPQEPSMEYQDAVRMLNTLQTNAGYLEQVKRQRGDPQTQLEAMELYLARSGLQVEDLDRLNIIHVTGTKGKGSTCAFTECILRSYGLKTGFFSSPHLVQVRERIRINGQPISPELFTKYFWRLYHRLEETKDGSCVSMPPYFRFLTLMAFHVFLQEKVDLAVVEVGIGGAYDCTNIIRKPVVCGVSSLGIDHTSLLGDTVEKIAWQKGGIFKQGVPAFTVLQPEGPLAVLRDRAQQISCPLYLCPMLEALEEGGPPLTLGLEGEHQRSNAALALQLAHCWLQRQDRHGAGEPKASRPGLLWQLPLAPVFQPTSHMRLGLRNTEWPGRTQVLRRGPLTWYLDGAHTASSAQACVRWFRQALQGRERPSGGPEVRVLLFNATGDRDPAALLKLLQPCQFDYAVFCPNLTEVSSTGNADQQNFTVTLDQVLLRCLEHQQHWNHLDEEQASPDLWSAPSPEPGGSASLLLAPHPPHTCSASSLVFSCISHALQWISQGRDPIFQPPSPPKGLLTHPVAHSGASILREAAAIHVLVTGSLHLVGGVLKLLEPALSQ
Description: Activity of substrate for human FPGS was evaluated and compared to that of aminopterin (AMT).

For another series, the species on record is Homo sapiens. In words: Growth inhibition was measured for inhibition of growth in FaDu human squamous cell carcinoma of the head and neck. Format: functional.
Series [8] relates to CCRF-CEM. Description: Growth inhibition was measured for inhibition of growth in CCRF-CEM subline resistant to MTX solely as a result of a 20-fold increase in wild-type DHFR protein and activity. Particulars: Homo sapiens. Format: functional, cell-based.
Series [9] has as its system CCRF-CEM. Description: Growth inhibition was measured as for inhibition of growth in CCRF-CEM cells. Format: functional, cell-based. Particulars: Homo sapiens.
In series [10] the test system is CCRF-CEM. In words: Growth inhibition was measured for inhibition of growth in CCRF-CEM sublines resistant to MTX solely as a result of decreased polyglutamation. Format: functional, cell-based. Particulars: Homo sapiens.
Substrate in series [11]: Nc1nc(N)c2c3c(oc2n1)CN(Cc1ccc(C(=O)N[C@@H](CCC(=O)O)C(=O)O)cc1)CC3
Description: Binding affinity was evaluated on CCRF-CEM human leukemia cell folyl-poly-glutamate synthetase. Format: cell-based.

`CN(Cc1coc2nc(N)nc(N)c12)c1ccc(C(=O)NC(CCC(=O)O)C(=O)O)cc1` (configuration not stated): the Selectivity ratio in series [1] turned out to be 0.021; in series [2] it was 12.2.
The term IC50 denotes the concentration needed to halve the response being measured. As to `Nc1nc(N)c2c3c(oc2n1)CN(Cc1ccc(Cl)c(Cl)c1)CC3`, the IC50 at Dihydrofolate reductase [3] was 24.1 µM; against Dihydrofolate reductase [4] it was more than 20 µM; on Dihydrofolate reductase [5], 20.6 µM; in [6], 22.3 µM. The Selectivity ratio in series [2] was 0.9.
On to `Nc1nc(N)c2nc(CNc3ccc(C(=O)N[C@@H](CCC(=O)O)C(=O)O)cc3)cnc2n1`, for which the Relative Vmax in series [7] was found to be 1.
For orientation: EC50 means the midpoint of the concentration-response curve. On to `Nc1nc(N)c2c3c(oc2n1)CN(Cc1ccc(C(=O)N[C@@H](CCC(=O)O)C(=O)O)cc1)CC3`, for which the EC50 was more than 100 µM in the series filed under Homo sapiens, 10.3 µM in the series with CCRF-CEM [8], 3.6 µM in the series on CCRF-CEM [9] and more than 50 µM in the series with CCRF-CEM [10]. The Selectivity ratio in series [1] is 4; in [2], 7.9. The values for the IC50 (against Dihydrofolate reductase [4]; on Dihydrofolate reductase [5]; in series [6]) were 0.97 µM, 85.8 µM and 21.5 µM, respectively. This molecule also showed a Relative Vmax in series [7] of 0.29.
As to `COc1cc(CN2CCc3c(oc4nc(N)nc(N)c34)C2)cc(OC)c1OC`, the IC50 against Dihydrofolate reductase [3] is more than 35 µM; against Dihydrofolate reductase [4], 12.1 µM; on Dihydrofolate reductase [5], more than 35 µM; in series [6], more than 35 µM.
With `COc1cc(CN2CCc3c(oc4nc(N)nc(N)c34)C2)cc(OC)c1`, the IC50 on Dihydrofolate reductase [3] is more than 22.8 µM; against Dihydrofolate reductase [4], more than 20 µM; at Dihydrofolate reductase [5] it was 22.8 µM; in series [6], more than 20.4 µM.
Consider `Nc1nc(N)c2c(CNc3ccc(C(=O)NC(CCC(=O)O)C(=O)O)cc3)coc2n1` (configuration not stated), for which the values for the Selectivity ratio in series [1] and in [2] were 1.9 and 1.4, respectively.
Turning to `Nc1nc(N)c2c3c(oc2n1)CN(Cc1ccccc1)CC3`, the Selectivity ratio in series [1] is more than 10. The IC50 is more than 9 µM on Dihydrofolate reductase [3], more than 15 µM against Dihydrofolate reductase [4], 15 µM at Dihydrofolate reductase [5] and 1.4 µM in series [6].
As for `Nc1nc(N)c2c3c(oc2n1)CN(Cc1ccc(Cl)cc1Cl)CC3`, the Selectivity ratio in series [1] came out at 3.9; in series [2], 2.3. Moreover, the IC50 against Dihydrofolate reductase [3] is 22.6 µM; against Dihydrofolate reductase [4], more than 50 µM; against Dihydrofolate reductase [5], 50.9 µM; in series [6], 13.1 µM.
As for `Nc1nc(N)c2c3c(oc2n1)CN(Cc1c(Cl)cccc1Cl)CC3`, the results for the Selectivity ratio in series [1] and in series [2] were 2.5 and 2, respectively. For the same molecule, the concentration for half-maximal inhibition (IC50) against Dihydrofolate reductase [3] was 40.5 µM; against Dihydrofolate reductase [4], more than 81.2 µM; against Dihydrofolate reductase [5], 81.2 µM; in series [6], 31.7 µM.
In the series listed under Homo sapiens, `CN(Cc1cnc2nc(N)nc(N)c2n1)c1ccc(C(=O)N[C@@H](CCC(=O)O)C(=O)O)cc1` [METHOTREXATE] displayed an EC50 of 0.0172 µM.

B1: Folylpolyglutamate synthase, mitochondrial (Homo sapiens), Q05932 (protein)
chain: MSRARSHLRAALFLAAASARGITTQVAARRGLSAWPVPQEPSMEYQDAVRMLNTLQTNAGYLEQVKRQRGDPQTQLEAMELYLARSGLQVEDLDRLNIIHVTGTKGKGSTCAFTECILRSYGLKTGFFSSPHLVQVRERIRINGQPISPELFTKYFWRLYHRLEETKDGSCVSMPPYFRFLTLMAFHVFLQEKVDLAVVEVGIGGAYDCTNIIRKPVVCGVSSLGIDHTSLLGDTVEKIAWQKGGIFKQGVPAFTVLQPEGPLAVLRDRAQQISCPLYLCPMLEALEEGGPPLTLGLEGEHQRSNAALALQLAHCWLQRQDRHGAGEPKASRPGLLWQLPLAPVFQPTSHMRLGLRNTEWPGRTQVLRRGPLTWYLDGAHTASSAQACVRWFRQALQGRERPSGGPEVRVLLFNATGDRDPAALLKLLQPCQFDYAVFCPNLTEVSSTGNADQQNFTVTLDQVLLRCLEHQQHWNHLDEEQASPDLWSAPSPEPGGSASLLLAPHPPHTCSASSLVFSCISHALQWISQGRDPIFQPPSPPKGLLTHPVAHSGASILREAAAIHVLVTGSLHLVGGVLKLLEPALSQ
Usually Km stands for the substrate concentration at which the rate is half of its maximum. Consider B1, for which the Km in series [11] was 6.2 µM.
